According to patent EP1028725B1, “USE OF VASOPRESSIN ANTAGONISTS FOR TREATING DISTURBANCES OR ILLNESSES OF THE INNER EAR” (Otogene Aktiengesellschaft, priority 1997, dated 2004):

Test system: Menschlicher Saccus endolymphaticus
Assay: Light-microscopic autoradiography of 125I-arginine-vasopressin binding on frozen tissue sections
Set-up: species or system menschlich
Conditions: overnight at 4 °C; unspecific binding checked with 10 µM unlabelled Arginin-Vasopressin
Description: Menschlicher Saccus endolymphaticus wurde von sechs Autopsien und zwei operierten Patienten mit Einwilligung der Verwandten bzw. der Patienten erhalten. Gefrorene Schnitte (20 µm) wurden auf einem Kryostaten bei -16 °C geschnitten, auf Gelatine-beschichtete Plättchen aufgebracht und über Nacht unter Vakuum bei 4 °C gelagert. […] Die radiomarkierten Schnitte wurden mit NTB-2 Nuklearemulsion (Eastman Kodak) beschichtet und für die lichtmikroskopische Autoradiographie präpariert. Die beschichteten Plättchen wurden in der Dunkelheit bei 4 °C für drei bis acht Tage gelagert. Nach Entwickeln und Fixieren wurden die Plättchen mit Haematoxylin/Eosin gefärbt.

“^125I-Arginin-Vasopressin [radioaktivem Vasopressin]” was tested, and the “Bindung im Epithel des endolymphatischen Sacks” value was “spezifische Bindung”.
